Measurements: publication PMC11249646, “Small-Molecule Disruptors of the Interaction between Calcium- and Integrin-Binding Protein 1 and Integrin αIIbβ3 as Novel Antiplatelet Agents” (ACS Pharmacology & Translational Science, 2024)
Like-named read-outs stand apart in the source and are kept apart here.

Key:
Type in all cases: binding
[1] = biological target: T1, GST-CIB1 : F-scrambled peptide (Homo sapiens, UniProt Q99828); experiment: FP scrambled-peptide counter screen, 1536-well format
T1 construct: made in house; host or cells: BL-21 plus RIL cells (E. coli)
T1 sequence (Q99828 1-191): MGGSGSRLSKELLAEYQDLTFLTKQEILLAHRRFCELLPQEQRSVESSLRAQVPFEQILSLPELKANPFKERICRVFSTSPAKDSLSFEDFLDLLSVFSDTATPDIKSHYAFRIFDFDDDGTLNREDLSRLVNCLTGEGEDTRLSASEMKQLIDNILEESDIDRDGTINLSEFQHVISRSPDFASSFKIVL

[2] = biological target: T2, CIB1 and αIIb interaction (GST-CIB1 : F-αIIb peptide) (Homo sapiens, UniProt Q99828); experiment: FP assay, 384-well format (screen); design: 384-well SCREEN Efficacy (%): concentration or dose not given beside the values; settings: for IC50: read-out: 384-well SCREEN IC50; for Confirm and Selective?: selective toward αIIb: negative curve class and/or IC50 ratio of >3-fold and/or >2-fold efficacy vs scrambled peptide
T2 construct: made in house; host or cells: BL-21 plus RIL cells (E. coli)
T2 sequence (Q99828 1-191): T1 sequence (Q99828 1-191)

[3] = biological target: T1, GST-CIB1 : F-scrambled peptide; experiment: FP scrambled-peptide counter screen, 384-well format; settings: for 384-well COUNTERSCREEN Confirm?: *: Curve in opposite direction; for IC50: read-out: 384-well COUNTERSCREEN IC50
[4] = biological target: T3, CIB1 and αIIb interaction (CIB1-GST : F-αIIb peptide) (Homo sapiens, UniProt Q99828); experiment: FP assay, 1536-well qHTS format (primary and confirmatory screen)
T3 construct: made in house; host or cells: BL-21 plus RIL cells (E. coli)
T3 sequence (Q99828 1-191): T1 sequence (Q99828 1-191)

[5] = scrambled-peptide counterscreen
[6] = scrambled-peptide counterscreen, YES/NO call
[7] = scrambled-peptide counterscreen, qHTS curve class
[8] = confirmatory screen, YES/NO call
[9] = confirmatory screen, qHTS curve class, negative sign = inhibitory curve
[10] = confirmatory screen, negative = inhibition
[11] = qHTS primary screen hits, Table S2, negative = inhibition
[12] = qHTS primary screen hits, Table S2, negative sign = inhibitory curve
[13] = qHTS primary screen hits, Table S2, read-out: IC50
[14] = confirmatory screen, read-out: CONFIRMATORY SCREEN IC50
[15] = qHTS primary screen hits, Table S2, negative sign = inhibitory curve, several classes where COUNT > 1

| Structure (SMILES) | COUNTERSCREEN Efficacy (%) [1, 5] [%] | COUNTERSCREEN Confirm? [1, 6] | COUNTERSCREEN Curve Class [1, 7] | 384-well SCREEN Efficacy (%) ([2]; F-αIIb peptide) | 384-well SCREEN Confirm? ([2]; F-αIIb peptide, YES/NO) | IC50 ([2]; F-αIIb peptide) [µM] | 384-well COUNTERSCREEN Efficacy (%) ([3]; F-scrambled peptide) | 384-well COUNTERSCREEN Confirm? ([3]; F-scrambled peptide) | IC50 ([3]; F-scrambled peptide) [µM] | CONFIRMATORY SCREEN Confirm? [4, 8] | CONFIRMATORY SCREEN Curve Class [4, 9] | CONFIRMATORY SCREEN Efficacy (%) [4, 10] [%] | Efficacy (%) [4, 11] [%] | IC50 [4, 13] [µM] | IC50 [4, 14] [µM] | Curve Class [4, 15] | further results |
| --- | --- | --- | --- | --- | --- | --- | --- | --- | --- | --- | --- | --- | --- | --- | --- | --- | --- |
| Cc1ccc(S(=O)(=O)Nc2cnccc2C(=O)Nc2nc(-c3cccc(Cl)c3)cs2)cc1.O=C(O)C(F)(F)F [NCGC00318956-01] | -8.5 | YES | 4 | 43 | YES | 14.2 | 84 | YES* | 20 | YES | -1.1 | -94 | -32 | 12.6 |  |  | Curve Class [4, 12]: -1.4 |
| O=C(O)c1cccc(CN2C(=O)/C(=C(\c3ccccc3)c3ccc(Cl)cc3)c3ccccc32)c1 [NCGC00378823-01] | -27 | YES | 4 | 70 | YES | 63.4 | 0 | YES | > 120 | YES | -2.2 | -63 |  |  | 44.7 |  | Efficacy (%) ([4]; qHTS FP screen hits, Table S2, negative = inhibition): -34%; Curve Class ([4]; qHTS FP screen hits, Table S2, one class per curve where COUNT > 1, negative sign = inhibitory curve): -1.2; IC50 ([4]; qHTS FP screen hits, Table S2, read-out: IC50): 39.8 µM |
| O=Cc1c(-c2ccccc2)no[n+]1[O-] [NCGC00168371-01] | -14 | YES | 4 | 73 | YES | 14.1 | 51 | Inconclusive | 17.7 | YES | -1.2 | -69 | -73 | 50.1 | 22.4 |  | Confirm and Selective? [2]: Inconclusive; Curve Class [4, 12]: -2.2 |
| Cc1c(C)n(Cc2ccc(-c3ccccc3C(=O)O)cc2)c2ccc(C(=O)N[C@@H](C)c3ccc([N+](=O)[O-])cc3)cc12 [NCGC00347955-04] | 95 | YES | 3 | 56 | YES | 12.6 | 32 | YES | > 120 | YES | -1.2 | -52 |  |  | 22.4 |  | IC50 ([1]; scrambled-peptide counterscreen, read-out: COUNTERSCREEN IC50): 89.1 µM |
| CC[P](CC)(CC)=[Au][S][C@@H]1O[C@H](COC(C)=O)[C@@H](OC(C)=O)[C@H](OC(C)=O)[C@H]1OC(C)=O [NCGC00160391-02] |  |  |  |  |  |  |  |  |  |  |  |  |  |  |  |  | COUNTERSCREEN Confirm? [1]: YES; COUNTERSCREEN Curve Class [1]: 4; COUNTERSCREEN Efficacy (%) [1]: -14%; 384-well SCREEN Confirm? [2]: YES; 384-well SCREEN Efficacy (%) [2]: 69%; IC50 [2]: 6.3 µM; 384-well COUNTERSCREEN Efficacy (%) [3]: 52%; IC50 [3]: 8.9 µM; CONFIRMATORY SCREEN Confirm? [4]: YES; CONFIRMATORY SCREEN Curve Class [4]: -1.2; CONFIRMATORY SCREEN Efficacy (%) [4]: -36%; IC50 ([4]; read-out: CONFIRMATORY SCREEN IC50): 31.6 µM |
| NS(=O)(=O)c1ccc(Cc2c(-c3cccc(-c4ccccc4F)c3)nn(-c3nc(C(=O)O)cs3)c2O)cc1.O=C(O)C(F)(F)F [NCGC00356464-01] | -32 | YES | 4 | 57 | YES | 22.4 | 34 | Inconclusive | 10 | YES | -1.2 | -74 | -63 | 79.4 | 39.8 | -2.2 | Confirm and Selective? [2]: Inconclusive |
| C=CCNc1oc(-c2ccc(-c3ccccc3)cc2)nc1C#N.O=C(O)C(F)(F)F [NCGC00183413-01] | -17 | YES | 4 | 74 | YES | 7.1 | 58 |  | 7.1 | YES | -1.2 | -66 | -28 | 10 | 17.8 | -1.4 |  |
| CC(=O)N1CCN(c2ccc(OCc3nn(C)c(C)c3-c3cccc4c(CCCOc5cccc6ccccc56)c(C(=O)O)n(Cc5cccnc5)c34)cc2)CC1 [NCGC00347174-02] | -33 | YES | 4 | 52 | YES | 28.2 | 15 | YES | > 120 | YES | -2.2 | -77 | -31 | 34.1 | 22.4 | -2.4 |  |
